Values joined by “and” are separate entries in the source; they are usually repeats but may differ in a detail not shown here. Equal entries are not always repeated. Toxic doses and inconclusive results are not listed.
Tested on: L1210 leukemia ip in BDF1 mice, survival T/C
Experiment: NCI In Vivo Anticancer Drug Screen. Data for tumor model L1210 Leukemia (intraperitoneal) in B6D2F1 (BDF1) mice
Conditions: endpoint: mean survival time, higher = longer survival
Outline: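 Transplanted-tumor mice were given test agent; controls received vehicle only. Survival readings from the two groups were divided (treated over control).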

[1] = dose: 100.0 mg/kg/injection, schedule: Q04DX003 (ip), vehicle: saline with Tween-80
[2] = dose: 100.0 mg/kg/injection, schedule: Q01DX009 (ip), vehicle: Klucel (hydroxypropylcellulose) (HPC)
[3] = dose: 200.0 mg/kg/injection, schedule: Q01DX009 (ip), vehicle: Klucel (hydroxypropylcellulose) (HPC)
[4] = dose: 400.0 mg/kg/injection, schedule: Q01DX009 (ip), vehicle: Klucel (hydroxypropylcellulose) (HPC)
[5] = dose: 75.0 mg/kg/injection, schedule: Q01DX001 (ip), vehicle: Klucel (hydroxypropylcellulose) (HPC)
[6] = dose: 150.0 mg/kg/injection, schedule: Q01DX001 (ip), vehicle: Klucel (hydroxypropylcellulose) (HPC)
[7] = dose: 300.0 mg/kg/injection, schedule: Q01DX001 (ip), vehicle: Klucel (hydroxypropylcellulose) (HPC)
[8] = dose: 100.0 mg/kg/injection, schedule: Q01DX001 (ip), vehicle: carboxymethylcellulose (CMC)
[9] = dose: 200.0 mg/kg/injection, schedule: Q01DX001 (ip), vehicle: carboxymethylcellulose (CMC)
[10] = dose: 100.0 mg/kg/injection, schedule: Q01DX001 (ip), vehicle: saline
[11] = dose: 200.0 mg/kg/injection, schedule: Q01DX001 (ip), vehicle: saline
[12] = dose: 400.0 mg/kg/injection, schedule: Q01DX001 (ip), vehicle: saline
[13] = dose: 50.0 mg/kg/injection, schedule: Q01DX009 (ip), vehicle: saline with Tween-80
[14] = dose: 100.0 mg/kg/injection, schedule: Q01DX009 (ip), vehicle: saline with Tween-80
[15] = dose: 200.0 mg/kg/injection, schedule: Q01DX009 (ip), vehicle: saline with Tween-80
[16] = dose: 200.0 mg/kg/injection, schedule: Q04DX003 (ip), vehicle: saline with Tween-80
[17] = dose: 400.0 mg/kg/injection, schedule: Q04DX003 (ip), vehicle: saline with Tween-80

COc1cc(NS(C)(=O)=O)ccc1Nc1c2ccc(Cl)cc2nc2c(OC)cccc12
T/C (dose: 6.25 mg/kg/injection, schedule: Q01DX009 (ip), vehicle: water): 155 % of control
T/C (dose: 12.5 mg/kg/injection, schedule: Q01DX009 (ip), vehicle: water): 98 % of control
T/C (dose: 13.0 mg/kg/injection, schedule: Q04DX003 (ip), vehicle: saline with Tween-80): 155 % of control
T/C (dose: 20.0 mg/kg/injection, schedule: Q04DX003 (ip), vehicle: saline with Tween-80): 247 % of control
T/C (dose: 29.0 mg/kg/injection, schedule: Q04DX003 (ip), vehicle: saline with Tween-80): 253 % of control
T/C (dose: 30.0 mg/kg/injection, schedule: Q04DX003 (ip), vehicle: saline with Tween-80): 296 % of control
T/C (dose: 44.0 mg/kg/injection, schedule: Q04DX003 (ip), vehicle: saline with Tween-80): 260 % of control
T/C (dose: 66.0 mg/kg/injection, schedule: Q04DX003 (ip), vehicle: saline with Tween-80): 153 % of control
T/C [1]: 89 % of control

CNS(=O)(=O)c1cc(C)ccc1C
T/C [2]: 94 % of control
T/C [3]: 95 % of control
T/C [4]: 100 % of control

O=C(NCO)NCO
T/C [5]: 95 % of control
T/C [6]: 93 % of control
T/C [7]: 97 % of control

CCCCCCCCCCCCCCCC[n+]1cccc(C(=O)NCO)c1
T/C [8]: 93 % of control
T/C [9]: 102 % of control

O=c1[nH]c2nc3ccccc3nc2c(=O)n1OS(=O)(=O)c1ccccc1
T/C [2]: 96 % of control
T/C [3]: 100 % of control
T/C [4]: 98 % of control

c1cc2cc(c1)CCc1cccc(c1)CC2
T/C [10]: 100 % of control
T/C [11]: 106 % of control
T/C [12]: 94 % of control

O=c1ccnc(C(F)(F)F)[nH]1
T/C (dose: 44.0 mg/kg/injection, schedule: Q01DX Z (ip), vehicle: methylcellulose (MC)): 87 % of control
T/C (dose: 66.0 mg/kg/injection, schedule: Q01DX Z (ip), vehicle: methylcellulose (MC)): 96 % of control
T/C (dose: 100.0 mg/kg/injection, schedule: Q01DX Z (ip), vehicle: methylcellulose (MC)): 101 % of control

CCOC(=O)CCCN(c1[nH]c(C)c(C)c1C#N)S(=O)(=O)c1ccc(C)cc1
T/C [13]: 93 % of control
T/C (dose: 50.0 mg/kg/injection, schedule: Q04DX003 (ip), vehicle: saline with Tween-80): 93 % of control
T/C [14]: 96 % of control
T/C [1]: 90 % of control
T/C [15]: 90 % of control
T/C [16]: 101 % of control
T/C (dose: 400.0 mg/kg/injection, schedule: Q01DX009 (ip), vehicle: saline with Tween-80): 100 % of control
T/C [17]: 95 % of control

CC1=CC(O)Nc2c(CBr)cccc21 (stereo unspecified)
T/C (dose: 25.0 mg/kg/injection, schedule: Q01DX009 (ip), vehicle: saline with Tween-80): 97 % of control
T/C [13]: 103 % of control
T/C [10]: 107 % of control
T/C (dose: 100.0 mg/kg/injection, schedule: Q04DX003 (ip), vehicle: saline): 101 % of control
T/C [11]: 95 % of control
T/C [12]: 91 % of control

Cc1cc(=O)oc2c(CN3CCCCC3)c(O)ccc12
T/C (dose: 5.0 mg/kg/injection, schedule: Q01DX001 (ip), vehicle: carboxymethylcellulose (CMC)): 93 % of control
T/C (dose: 10.0 mg/kg/injection, schedule: Q01DX001 (ip), vehicle: carboxymethylcellulose (CMC)): 90 % of control
T/C (dose: 20.0 mg/kg/injection, schedule: Q01DX001 (ip), vehicle: carboxymethylcellulose (CMC)): 104 % of control

C=C1C(=O)O[C@@H]2/C=C(\C)CC/C=C(/C)CC[C@@H]12
T/C (dose: 50.0 mg/kg/injection, schedule: Q01DX001 (ip), vehicle: saline): 101 % of control
T/C [10]: 86 % of control
T/C [11]: 93 % of control
T/C [12]: 86 % of control

O=c1[nH]c2ccccc2o1
T/C [5]: 101 % of control
T/C [6]: 100 % of control
T/C (dose: 200.0 mg/kg/injection, schedule: Q04DX002 (ip), vehicle: saline): 92 % of control
T/C [7]: 103 % of control
T/C (dose: 400.0 mg/kg/injection, schedule: Q04DX002 (ip), vehicle: saline): 114 % of control

Cn1c2ccccc2[n+]2c(N)scc12
T/C (dose: 12.5 mg/kg/injection, schedule: Q04DX002 (ip), vehicle: saline): 101 % of control
T/C (dose: 25.0 mg/kg/injection, schedule: Q04DX002 (ip), vehicle: saline): 115 % of control
T/C (dose: 50.0 mg/kg/injection, schedule: Q04DX002 (ip), vehicle: saline): 96 % of control and 91 % of control
T/C (dose: 100.0 mg/kg/injection, schedule: Q04DX002 (ip), vehicle: saline): 102 % of control

COc1cc2c(cc1OC)C(Cc1ccc(N)cc1)N(C)CC2 (stereo unspecified)
T/C (dose: 10.0 mg/kg/injection, schedule: Q01DX001 (ip), vehicle: saline): 87 % of control
T/C (dose: 20.0 mg/kg/injection, schedule: Q01DX001 (ip), vehicle: saline): 91 % of control
T/C (dose: 40.0 mg/kg/injection, schedule: Q01DX001 (ip), vehicle: saline): 94 % of control
T/C (dose: 80.0 mg/kg/injection, schedule: Q01DX001 (ip), vehicle: saline): 98 % of control

O=C(Nc1ccc(NC2=NCCN2)cc1)c1cccc(C(=O)Nc2ccc(NC3=NCCN3)cc2)c1
T/C (dose: 3.75 mg/kg/injection, schedule: Q01DX Z (ip), vehicle: methylcellulose (MC)): 100 % of control
T/C (dose: 7.5 mg/kg/injection, schedule: Q01DX Z (ip), vehicle: methylcellulose (MC)): 104 % of control
T/C (dose: 15.0 mg/kg/injection, schedule: Q01DX Z (ip), vehicle: methylcellulose (MC)): 116 % of control
T/C (dose: 30.0 mg/kg/injection, schedule: Q01DX Z (ip), vehicle: methylcellulose (MC)): 161 % of control

CNS(=O)(=O)c1ccc(C(N)=S)cc1
T/C (dose: 100.0 mg/kg/injection, schedule: Q01DX001 (ip), vehicle: gum acacia): 93 % of control
T/C (dose: 200.0 mg/kg/injection, schedule: Q01DX001 (ip), vehicle: gum acacia): 106 % of control
T/C (dose: 400.0 mg/kg/injection, schedule: Q01DX001 (ip), vehicle: gum acacia): 98 % of control

CONS(=O)c1ccc([N+](=O)[O-])cc1 (stereo unspecified)
T/C [2]: 98 % of control
T/C [3]: 96 % of control
T/C [4]: 100 % of control

O=[N+]([O-])c1cccc2cn[nH]c12
T/C (dose: 25.0 mg/kg/injection, schedule: Q04DX002 (ip), vehicle: saline with Tween-80): 100 % of control
T/C (dose: 50.0 mg/kg/injection, schedule: Q04DX002 (ip), vehicle: saline with Tween-80): 110 % of control
T/C (dose: 100.0 mg/kg/injection, schedule: Q04DX002 (ip), vehicle: saline with Tween-80): 107 % of control and 89 % of control

COc1ccccc1C(=O)OCC(=O)c1ccc(-c2ccccc2)cc1
T/C [11]: 91 % of control
T/C [12]: 94 % of control

COc1ccccc1NC(=O)Nc1ccccc1C
T/C [2]: 96 % of control
T/C (dose: 100.0 mg/kg/injection, schedule: Q04DX003 (ip), vehicle: Klucel (hydroxypropylcellulose) (HPC)): 94 % of control
T/C [3]: 89 % of control
T/C (dose: 200.0 mg/kg/injection, schedule: Q04DX003 (ip), vehicle: Klucel (hydroxypropylcellulose) (HPC)): 100 % of control
T/C [4]: 94 % of control
T/C (dose: 400.0 mg/kg/injection, schedule: Q04DX003 (ip), vehicle: Klucel (hydroxypropylcellulose) (HPC)): 90 % of control

BrCc1ccc(Br)cc1
T/C [8]: 96 % of control
T/C [9]: 91 % of control

Cc1cc2c(cc1[N+](=O)[O-])OCCO2
T/C [1]: 93 % of control
T/C [16]: 89 % of control
T/C [17]: 88 % of control

O=c1[nH][nH]c(=O)c2c1CCCC2
T/C [13]: 98 % of control
T/C [14]: 95 % of control
T/C [15]: 109 % of control

CC(C)(C)c1cc(C(C)(C)[N+](C)(C)C)cc(C(C)(C)C)n1
T/C (dose: 50.0 mg/kg/injection, schedule: Q01DX001 (ip), vehicle: Klucel (hydroxypropylcellulose) (HPC)): 102 % of control
T/C (dose: 100.0 mg/kg/injection, schedule: Q01DX001 (ip), vehicle: Klucel (hydroxypropylcellulose) (HPC)): 90 % of control

Source: PubChem BioAssay AID248 (DTP/NCI, 2004)
